# Measured values taken from patent US20140274969A1 (priority 2013, published 2014).
# Like-named read-outs stand apart in the source and are kept apart here.
# Experiments:
# [1] = system: contusive SCI; details: rats; 90 mg/kg i.p. or via jugular cannula, then two 45 mg/kg i.p. at 12-h intervals; cited from earlier work
# [2] = system: acute traumatic SCI; experiment: ASIA motor recovery after acute traumatic SCI (randomized placebo-controlled trial); assay type: in vivo, human
# Description: The research protocol disclosed herein was approved by the University of Calgary Conjoint Health Research Ethics Board. Between June 2004 and August 2008, all subjects presenting with motor deficit secondary to acute traumatic SCI to the Spine Service at the Foothills Medical Centre in Calgary, Calgary, Alberta, Canada, were immediately identified to the principal investigators and were assessed and screened for this trial (Clinical Trials Gov. Identifier No. NCT00559494). Those within 12 h of injury who met other inclusion criteria (Table 1) were offered enrolment. […] For this purpose, sets of 10 random numbers balanced for odd and even integers were computer generated. Sequentially numbered and sealed packaged kits containing minocycline or placebo were constructed from the randomization codes for each stratified group by an independent individual not otherwise involved in the trial. Patients were administered the next available treatment kit for their appropriate treatment group. With the exception of the bedside nurse responsible for study drug administration, all subjects and research personnel were blinded to treatment until the end of the study (FIG. 1). […] Clin. Exp. Pharmacol. Physiol. 1:299-308). […] Neurological function was assessed at intervals using the American Spinal Cord Injury Association (ASIA) standardized neurological examination and included the motor composites and sensory composites. These examinations were performed by a physical medicine and rehabilitation specialist at Day 1 (time of enrolment), Day 4, Day 5, Day 7, Week 3, Week 6, Week 12, Month 6, and Month 12 (Table 3). Day 1 scores were subtracted from each subsequent score to calculate improvement from baseline for graphing purposes. […] ASIA sensory scores were similarly evaluated. […] Functional recovery data were compared over all data points. […] All statistical tests were two-tailed (a=0.05).
# [3] = system: amyotrophic lateral sclerosis; details: human; cited from earlier work
# [4] = system: SCI; details: rats; i.p. every 12 h for 3 days, 90 mg/kg then 30 mg/kg; cited from earlier work
# [5] = Description: Subjects were evaluated for adverse events daily while in hospital and at each subsequent clinical evaluation. All serious adverse events (Table 4) were reviewed promptly by a safety monitoring board composed of clinicians and clinician researchers not otherwise involved in this study. A summary of all adverse events was reviewed every 6 months.
# The model assumed that any change associated with treatment group was constant over these time points. An interaction term between treatment and injury type was included to allow for the possibility that changes associated with treatment group differed among motor-complete and motor-incomplete injured subjects. ASIA sensory scores were similarly evaluated. ASIA motor, pin-prick and light scores were evaluated by the Shapiro-Wilk normality test and were consistent with a normal distribution. Functional recovery data were compared over all data points. Adverse events were categorized by system and mean numbers of events per patient were compared within each system by ANOVA. All statistical tests were two-tailed (a=0.05). […] The Student t-test was then used to estimate the between group difference that this study was powered to detect with power=0.8 and a=0.05.
# [6] = High dose (800 mg tapered by 100 mg each 12 h to 400 mg, 7 days)
# [7] = Low dose (200 mg IV twice daily, 7 days)
compound,measurement,setting,value
"CN(C)c1ccc(O)c2c1C[C@H]1C[C@H]3[C@H](N(C)C)C(O)=C(C(N)=O)C(=O)[C@@]3(O)C(O)=C1C2=O [minocycline, (2E,4S,4aR,5aS,12aR)-2-(amino-hydroxy-methylidene)-4,7-bis(dimethylamino)-10,11,12a-trihydroxy-4-a,5,5a,6-tetrahydro-4H-tetracene-1,3,12-trione]",behavioural or histological improvements or recovery from SCI,[1],neither route for minocycline administration resulted in any behavioural or histological improvements
same,ASIA motor recovery greater than placebo,"[2]; all subjects with data beyond 3 months (44), 3-12 month plateau, P=0.20",6 motor points
same,distribution of motor recovery difference vs placebo: lower extremity and new segment scores,[2]; cervical SCI,majority of the difference
same,"distribution of motor recovery difference vs placebo: upper extremities, zone of partial preservation",[2]; cervical SCI,Little difference
same,difference in ASIA motor score over placebo,"[2]; cervical SCI (n=25), 95% CI 0-28, P=0.05",14 point
same,"motor recovery, low-dose vs high-dose groups",[2]; cervical SCI subgroups (FIG. 5),greater difference with higher doses
same,difference in ASIA motor score over placebo,"[2]; cervical motor-complete (n=16), P=0.29",10 points
same,difference in ASIA motor score over placebo,"[2]; cervical motor-incomplete (n=9), P=0.12",22 points
same,difference in ASIA motor score over placebo,"[2]; cervical motor-incomplete, excluding one placebo subject with poor recovery (n=8), P=0.135",13 points
same,ASIA motor recovery benefit vs placebo,[2]; thoracic SCI (n=17),did not show any benefit
same,clinical outcome in amyotrophic lateral sclerosis,[3],clinical deterioration
same,hindlimb motor function,[4],significantly increased
same,Autonomic dysreflexia: # of events,[5]; [6],1
same,Autonomic dysreflexia: # of subjects,[5]; [6],1
same,Cardiac: # of events,[5]; [6],14
same,Cardiac: # of subjects,[5]; [6],9
same,Deep venous thrombosis: # of events,[5]; [6],1
same,Deep venous thrombosis: # of subjects,[5]; [6],1
same,Deep venous thrombosis: events/subject,[5]; [6],0.06
same,Endocrine: # of events,[5]; [6],0
same,Endocrine: # of subjects,[5]; [6],0
same,Endocrine: events/subject,[5]; [6],0
same,Gastrointestinal: # of events,[5]; [6],36
same,Gastrointestinal: # of subjects,[5]; [6],12
same,Gastrointestinal: events/subject,[5]; [6],1.88
same,Genito-urinary: # of events,[5]; [6],7
same,Genito-urinary: # of subjects,[5]; [6],5
same,Genito-urinary: events/subject,[5]; [6],0.44
same,Haematological: # of events,[5]; [6],9
same,Haematological: # of subjects,[5]; [6],6
same,Haematological: events/subject,[5]; [6],0.63
same,Infectious: # of events,[5]; [6],28
same,Infectious: # of subjects,[5]; [6],11
same,Infectious: events/subject,[5]; [6],1.38
same,Integumentary: # of events,[5]; [6],21
same,Integumentary: # of subjects,[5]; [6],11
same,Integumentary: events/subject,[5]; [6],1.13
same,Musculoskeletal: # of events,[5]; [6],14
same,Musculoskeletal: # of subjects,[5]; [6],13
same,Musculoskeletal: events/subject,[5]; [6],0.75
same,Neurological: # of events,[5]; [6],16
same,Neurological: # of subjects,[5]; [6],10
same,Neurological: events/subject,[5]; [6],0.56
same,Other: # of events,[5]; [6],19
same,Other: # of subjects,[5]; [6],11
same,Pain: # of events,[5]; [6],31
same,Pain: # of subjects,[5]; [6],14
same,Psychiatric: # of events,[5]; [6],18
same,Psychiatric: # of subjects,[5]; [6],8
same,Psychiatric: events/subject,[5]; [6],1.13
same,Respiratory: # of events,[5]; [6],13
same,Respiratory: # of subjects,[5]; [6],9
same,Respiratory: events/subject,[5]; [6],0.81
same,Serious adverse events: # of events,[5]; [6],1
same,Serious adverse events: # of subjects,[5]; [6],1
same,Serious adverse events: events/subject,[5]; [6],0.06
same,Autonomic dysreflexia: # of events,[5]; [7],0
same,Autonomic dysreflexia: # of subjects,[5]; [7],0
same,Cardiac: # of events,[5]; [7],5
same,Cardiac: # of subjects,[5]; [7],4
same,Deep venous thrombosis: # of events,[5]; [7],0
same,Deep venous thrombosis: # of subjects,[5]; [7],0
same,Deep venous thrombosis: events/subject,[5]; [7],0
same,Endocrine: # of events,[5]; [7],1
same,Endocrine: # of subjects,[5]; [7],1
same,Endocrine: events/subject,[5]; [7],0.2
same,Gastrointestinal: # of events,[5]; [7],12
same,Gastrointestinal: # of subjects,[5]; [7],5
same,Gastrointestinal: events/subject,[5]; [7],2.2
same,Genito-urinary: # of events,[5]; [7],0
same,Genito-urinary: # of subjects,[5]; [7],0
same,Genito-urinary: events/subject,[5]; [7],0
same,Haematological: # of events,[5]; [7],2
same,Haematological: # of subjects,[5]; [7],2
same,Haematological: events/subject,[5]; [7],0.4
same,Infectious: # of events,[5]; [7],12
same,Infectious: # of subjects,[5]; [7],4
same,Infectious: events/subject,[5]; [7],1.8
same,Integumentary: # of events,[5]; [7],5
same,Integumentary: # of subjects,[5]; [7],4
same,Integumentary: events/subject,[5]; [7],1.0
same,Musculoskeletal: # of events,[5]; [7],4
same,Musculoskeletal: # of subjects,[5]; [7],4
same,Musculoskeletal: events/subject,[5]; [7],0.6
same,Neurological: # of events,[5]; [7],11
same,Neurological: # of subjects,[5]; [7],5
same,Neurological: events/subject,[5]; [7],1.6
same,Other: # of events,[5]; [7],13
same,Other: # of subjects,[5]; [7],5
same,Pain: # of events,[5]; [7],10
same,Pain: # of subjects,[5]; [7],5
same,Psychiatric: # of events,[5]; [7],8
same,Psychiatric: # of subjects,[5]; [7],4
same,Psychiatric: events/subject,[5]; [7],1.2
same,Respiratory: # of events,[5]; [7],5
same,Respiratory: # of subjects,[5]; [7],4
same,Respiratory: events/subject,[5]; [7],1.0
same,Serious adverse events: # of events,[5]; [7],1
same,Serious adverse events: # of subjects,[5]; [7],1
same,Serious adverse events: events/subject,[5]; [7],0.2
same,"adverse events among placebo, low-dose and high-dose groups",[5]; low-dose (200 mg) or high-dose (400 mg) vs placebo,did not vary significantly
